Assay results from patent US10766869B2, “Triazoles for the treatment of demyelinating dieases” (Vertex Pharmaceuticals Incorporated, priority 2015, dated 2020).
Where two headings read alike, the source gives them in different places.

Legend:
[1] = tested on: primary rat mixed cortical cells; assay: In vitro myelination assay (MBP positive myelin strands, fold myelin pixels above background); format: cell-based; conditions: Rattus norvegicus; for fold induction at 1 µM: 1.0 μM compound; for fold induction at 10 µM: 10.0 μM compound
Summary of the method: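 Mixed cortical culture, P1 rat, 87,500-95,000 cells/well; compound present from seeding, refreshed days 6 and 10; 14 d, 37 °C, 5% CO2. Day 14: PFA fix, anti-MBP + Hoechst. Read-out: fold MBP myelin pixels over untreated, tested at 1.0 and 10.0 μM.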

[2] = tested on: C57BL/6 mice demyelinated with cuprizone; assay: In vivo mouse cuprizone assay (new myelin, MBP positive / MOG negative area); conditions: for effect measured as new myelin generated in response to compound treatment compared to control with no added compound: Regimen A (QD or BID for 14 days via oral gavage), various doses; for effect (new myelin generated compared to control): Regimen A, oral gavage
From the text: Assays for Detecting and Measuring Remyelination Properties of Compounds In Vivo Mouse Cuprizone Assay:
Cuprizone Feeding Protocol:
2 month old female C57BL/6 mice (Stock Number: 000664) were purchased from Jackson Labs and fed for 4-10 months with a 0.2% cuprizone chow (provided by Research Diets, Product # D10020701R, Description AIN-76A Rodent Diet with 0.2% cuprizone) using cuprizone purchased from Sigma (Cat #14690-100G). Chow was provided ad libitum, and refreshed every 4 days to ensure stability of the cuprizone. Mice were maintained on this diet for 4-10 months before initiation of the experiments.
1) 24 hours prior to the start of dosing, 6 to 10 mice were switched from cuprizone chow to normal chow (Picolab rodent diet 20 EXT IRR 5053, irradiated) without added cuprizone. These mice were maintained on normal chow throughout the course of dosing.
2) 6 to 10 mice per group were randomized into new cages such that mice that were housed in one cage during the cuprizone diet were not housed together in one dose group during the study.
3) Mice were dosed with compound in one of two regimens: Regimen A: mice were dosed QD or BID for 14 days via oral gavage. Regimen B: mice were dosed QD or BID for 14 days via IP injection. However, other dosing schedules and/or routes of administration may also be used.
4) On the last day of dosing, dried blood spots were collected at multiple time points following the last dose. Often this was 30 minutes, 2, 6 and 24 hours following the final dose on day 14 via the tail vein.
Perfusion and Sectioning:
1) The day after the last day of dosing, mice were transcardially perfused with 12 ml of PBS (Sigma, P4417) followed by 20 ml of 3.2% paraformaldehyde in PBS (Electron Microscopy Sciences #15714-S). The brains were removed via standard dissection techniques and each was postfixed in 3.2% paraformaldehyde (20 ml) for 24-48 hours at room temperature in sealed scintillation vials.
2) Serial 50 micron sections were collected through the anterior posterior extent of the brain, from just behind the olfactory bulb, through visual cortex using a vibrating microtome, the V-STAR (described in International Publication No. WO 2013/012799 and U.S. Pat. No. 8,967,024 both of which are incorporated herein by reference in their entirety). Sections were collected in phosphate buffered saline (PBS). Vibratome speed was set to 1.1 mm/s and amplitude was set to 0.8 mm.
3) A series of every 24th section was removed for staining yielding 5 sections per brain.
1) Tissue sections were stained using an automated system for processing blots (hereinafter the “blotinator”) (described in WO2011/087646 and U.S. Pat. Nos. 8,337,754 and 8,679,406 each of which is incorporated herein by reference in its entirety). Brain sections were placed in the blotinator plate and bathed in PBS. The blotinator applied primary antibodies (MOG and MBP together) and Hoechst nuclear stain for 12 hours at room temperature with constant shaking.
The following stains were diluted in blocking buffer (described below):
Hoechst nuclear stain (0.5 mg/ml)(bisBenzimide H 33342 trihydrochloride Sigma #33342).
Myelin basic Protein (MBP) antibody (Abcam Cat # ab7349) was diluted at a 1:750 ratio in blocking buffer).
Myelin Oligodendrocyte Glycoprotein (MOG) (R&D systems Cat # AF2439) was diluted at a 1:250 ratio in blocking buffer.
Antibodies were diluted in blocking buffer, which consisted of 0.3% Triton X-100 (Sigma Cat #234729), 0.02% Sodium Azide (Sigma Cat # S2002) and 8% fetal bovine serum in PBS (Sigma Cat # F2442).
2) The blotinator washed the samples 4 times for 5 minutes each with a wash buffer (0.2% Triton X-100 in PBS).
3) The blotinator applied secondary antibodies diluted in blocking buffer and incubated them for 2 hours with constant shaking.
Alexa 488 donkey anti-rat secondary (Life technologies Cat # A-21208) was diluted at 1:1000 in blocking buffer. […]

[3] = relative to baseline of no added compound, read-out: Fold myelin pixels above background, 1.0 μM
[4] = relative to baseline of no added compound, read-out: Fold myelin pixels above background, 10.0 μM
[5] = relative to baseline of no added compound, read-out: Fold myelin pixels above background
[6] = read-out: Fold myelin pixels above background relative to baseline of no added compound

Structure (SMILES)	fold induction at 1 µM [1, 3]	fold induction at 10 µM [1, 4]	effect measured as new myelin generated in response to compound treatment compared to control with no added compound [2]	fold induction at 1 µM [1, 6]	fold induction at 10 µM [1, 6]	other results
Cc1cc(Nc2ncn(-c3cc(F)cc(F)c3)n2)cc(N2CCN(C3COC3)CC2)c1 [Compound 33, 1-(3,5-difluorophenyl)-N-[3-methyl-5-[4-(oxetan-3-yl)piperazin-1-yl]phenyl]-1,2,4-triazol-3-amine]	100 to 1000	≤ 1	positive effect	–	–	effect (new myelin generated compared to control) ([2]; 10 mpk): positive effect; effect (new myelin generated compared to control) ([2]; 25 mpk): positive effect; effect (new myelin generated compared to control) ([2]; 50 mpk): positive effect
CCc1cc(Nc2ncn(-c3cnccn3)n2)cc(N2CCN(C3COC3)CC2)c1 [Compound 48, N-[3-ethyl-5-[4-(oxetan-3-yl)piperazin-1-yl]phenyl]-1-pyrazin-2-yl-1,2,4-triazol-3-amine]	100 to 1000	100 to 1000	positive effect	–	–	effect (new myelin generated compared to control) ([2]; 30 mpk): positive effect; effect (new myelin generated compared to control) ([2]; 50 mpk): positive effect; effect (new myelin generated compared to control) ([2]; 100 mpk): positive effect
CCc1cc(Nc2ncn(-c3cc(F)cc(F)c3)n2)cc(N2CCN(C3COC3)CC2)c1 [Compound 107, 1-(3,5-difluorophenyl)-N-[3-ethyl-5-[4-(oxetan-3-yl)piperazin-1-yl]phenyl]-1,2,4-triazol-3-amine]	1000 to 10000	1000 to 10000	positive effect	–	–	effect (new myelin generated compared to control) ([2]; 30 mpk): positive effect; effect (new myelin generated compared to control) ([2]; 90 mpk): positive effect
Cc1cc(Nc2ncn(-c3cnccn3)n2)cc(N2CCN(C3COC3)CC2)c1 [Compound 195, N-[3-methyl-5-[4-(oxetan-3-yl)piperazin-1-yl]phenyl]-1-pyrazin-2-yl-1,2,4-triazol-3-amine]	100 to 1000	100 to 1000	positive effect	–	–	effect (new myelin generated compared to control) ([2]; 60 mpk): positive effect; effect (new myelin generated compared to control) ([2]; 100 mpk): positive effect
Cc1cc(Nc2ncn(-c3cc(F)cc(F)c3)n2)cc(N2CCN(C3(C)COC3)CC2)c1 [Compound 215, 1-(3,5-difluorophenyl)-N-[3-methyl-5-[4-(3-methyloxetan-3-yl)piperazin-1-yl]phenyl]-1,2,4-triazol-3-amine]	10 to 100	10 to 100	positive effect	–	–	effect (new myelin generated compared to control) ([2]; 30 mpk): positive effect; effect (new myelin generated compared to control) ([2]; 90 mpk): positive effect
Cc1cc(Nc2ncn(-c3ccccc3)n2)cc(N2CCN(C)CC2)c1 [Compound 247, N-[3-methyl-5-(4-methylpiperazin-1-yl)phenyl]-1-phenyl-1,2,4-triazol-3-amine]	100 to 1000	≤ 1	positive effect	–	–	effect (new myelin generated compared to control) ([2]; 10 mpk): positive effect; effect (new myelin generated compared to control) ([2]; 25 mpk): positive effect; effect (new myelin generated compared to control) ([2]; 50 mpk): positive effect
Cc1cc(Nc2ncn(-c3cc(F)cc(F)c3)n2)nc(N2CCN(C3COC3)CC2)c1 [Compound 331, N-[1-(3,5-difluorophenyl)-1,2,4-triazol-3-yl]-4-methyl-6-[4-(oxetan-3-yl)piperazin-1-yl]pyridin-2-amine]	1 to 10	10 to 100	positive effect	–	–	effect (new myelin generated compared to control) ([2]; 20 mpk): positive effect; effect (new myelin generated compared to control) ([2]; 30 mpk): positive effect; effect (new myelin generated compared to control) ([2]; 40 mpk): positive effect
Cc1cc(Nc2ncn(-c3cccc(F)c3)n2)cc(N2CCN(C3COC3)CC2)c1 [Compound 406, 1-(3-fluorophenyl)-N-[3-methyl-5-[4-(oxetan-3-yl)piperazin-1-yl]phenyl]-1,2,4-triazol-3-amine]	–	–	positive effect	–	–	fold induction at 1 µM [1, 5]: 1000 to 10000; fold induction at 10 µM [1, 5]: ≤ 1; effect (new myelin generated compared to control) ([2]; 25 mpk): positive effect; effect (new myelin generated compared to control) ([2]; 50 mpk): positive effect
Cc1cc(NCC2CN(C(=O)OC(C)(C)C)C2)cc(Nc2ncn(-c3cc(F)cc(F)c3)n2)c1 [Compound 1084, tert-butyl 3-[[3-[[1-(3,5-difluorophenyl)-1,2,4-triazol-3-yl]amino]-5-methyl-anilino]methyl]azetidine-1-carboxylate]	–	–	–	10 to 100	1 to 10	–
Cc1cc(Nc2ncn(-c3ccccc3)n2)c(F)c(N2CCN(C3COC3)CC2)c1 [Compound 1085, N-[2-fluoro-5-methyl-3-[4-(oxetan-3-yl)piperazin-1-yl]phenyl]-1-phenyl-1,2,4-triazol-3-amine]	–	–	–	10 to 100	10 to 100	–
[2H]C([2H])([2H])C([2H])(N1CCN(c2cc(C)cc(Nc3ncn(-c4ccccc4)n3)c2)CC1)C([2H])([2H])[2H] [Compound 1086, N-[3-methyl-5-[4-[1,2,2,2-tetradeuterio-1-(trideuteriomethyl)ethyl]piperazin-1-yl]phenyl]-1-phenyl-1,2,4-triazol-3-amine]	–	–	–	10 to 100	≤ 1	–
Cc1cc(Nc2ncn(-c3cc(F)cc(F)c3)n2)cc(N2CCOC(COCC3CC3)C2)c1 (centres unmarked) [Compound 1087, N-[3-[2-(cyclopropylmethoxymethyl)morpholin-4-yl]-5-methyl-phenyl]-1-(3,5-difluorophenyl)-1,2,4-triazol-3-amine]	–	–	–	1 to 10	1 to 10	–
[2H]C1(N2CCN(c3cc(C)cc(Nc4ncn(-c5cc(F)cc(F)c5)n4)c3)CC2)COC1 [Compound 1110, N-[3-[4-(3-deuteriooxetan-3-yl)piperazin-1-yl]-5-methyl-phenyl]-1-(3,5-difluorophenyl)-1,2,4-triazol-3-amine]	–	–	–	1000 to 10000	1 to 10	–
[2H]C1([2H])N(C)C([2H])([2H])C([2H])([2H])N(c2cc(C)cc(Nc3ncn(-c4ccccc4)n3)c2)C1([2H])[2H] [Compound 1111, N-[3-methyl-5-(2,2,3,3,5,5,6,6-octadeuterio-4-methyl-piperazin-1-yl)phenyl]-1-phenyl-1,2,4-triazol-3-amine]	–	–	–	100 to 1000	≤ 1	–
